In publication PMC8199124, “Design, Synthesis and In-Vitro Biological Evaluation of Antofine and Tylophorine Prodrugs as Hypoxia-Targeted Anticancer Agents” (Molecules, 2021):
Like-named read-outs stand apart in the source and are kept apart here.

Columns and labels:
[1] = Solubility in PBS (pH 7.4); format: physicochemical; conditions: aqueous buffer, mean ± SE
Method: (§1) Water solubility, logD, and PAMPA-BBB were evaluated using the protocols we previously described.

LogD determination = format: physicochemical; conditions: mean ± SE
Method: as §1

[2] = BBB-Parallel Artificial Membrane Permeability Assay (BBB-PAMPA); format: in vitro ADME; conditions: mean ± SE
Method: The physicochemical properties of the new compounds were evaluated (Table 1). […] Consequently, these derivatives lost their BBB penetrability, as predicted by the BBB-Parallel Artificial Membrane Permeability Assay (BBB-PAMPA), whereas their parent alkaloids had free passage through the BBB.
as §1

[3] = Plasma protein binding (PPB); format: in vitro ADME; conditions: mean ± SE, read-out: PPB (% of Bound Compound) (converted)
Method: The physicochemical properties of the new compounds were evaluated (Table 1).

[4] = Mouse plasma stability test; format: in vitro ADME; conditions: 37 °C, up to 24 h, read-out: t1/2 (Mouse Plasma) (converted)
Method: (§2) Incubations were carried out in 6 aliquots of 70 μL each in duplicates. […] The reactions were stopped by adding 350 μL of acetonitrile with subsequent plasma proteins sedimentation by centrifuging at 5500 rpm for 5 min. Supernatants were analyzed by LC-MS using Shimadzu VP HPLC system including vacuum degasser, gradient pumps, reverse phase column, column oven and autosampler. The HPLC system was coupled with tandem mass spectrometer API 3000 (PE Sciex, Foster City, CA, USA). Both the positive and negative ion modes of the TurboIonSpray ion source were used. The acquisition and analysis of the data were performed using Analyst 1.5.2 software (PE Sciex, API 3000 mass spectrometer, Foster City, CA, USA). The percentage of the test compounds remaining after incubation in plasma and their half-lives (T1/2) were calculated.

[5] = Human plasma stability test; format: in vitro ADME; conditions: 37 °C, up to 24 h, read-out: t1/2 (Human Plasma) (converted)
Method: as §2

in vitro = conditions: male, Balb/c, mouse, pH 7.4
Method: Mouse hepatic microsomes were isolated from pooled, perfused livers of Balb/c male mice according to the standard protocol. […] Microsomal incubations were carried out in 96-well plates in 5 aliquots of 40 μL each. […] Control incubations were performed by replacing the NADPH-cofactor system with PBS. The additional control incubations in PBS (with 3.3 mM MgCl2) without added microsomes were carried out in this study. […] The incubations were performed in duplicates. Five time points over 40 min had been analyzed. The reactions were stopped by adding 12 volumes of 90% acetonitrile-water to incubation aliquots, followed by protein sedimentation by centrifuging at 5500 rpm for 3 min. The supernatants were analyzed using LC-MS as mentioned above.

HEK293 = test: Cytotoxicity (MTT) under normoxia, HEK293; format: cell-based; conditions: Homo sapiens, HEK293, read-out: IC50 HEK293
Method: (§3) The cytotoxicity of the compounds 5a–c and their parent alkaloids was evaluated by the 3-[4,5-dimethylthiazole-2-yl]-2,5-diphenyltetrazolium bromide (MTT) assay against 5 cancerous and 2 non-cancerous cell lines (Table 4).
(§4) The eight cell lines HEK293 (Human embryonic kidney 293), CHO-K1 (Chinese hamster ovary K1), MCF-7 cells (Human breast adenocarcinoma), HCT116 (human colorectal carcinoma), RKO (Human rectal carcinoma), SW480 (human colorectal carcinoma), H460 (Human lung cancer), and MRC5 (Normal human foetal lung fibroblast), were obtained from the ATCC. The cell lines were routinely grown in alpha minimum essential medium (α-MEM) containing 5% foetal calf serum (FCS). The appropriate number of cells (HCT116 = 400 cells/well, H460 cells = 600 cells/well) were seeded into 96-well plates under normoxic or hypoxic conditions. Cells were plated in 100 µL α-MEM containing 10% FCS, 10mM D-Glucose and 0.2mM 2′-deoxycytidine. After incubation for 2 h, the compounds were added at the appropriate concentration and incubated for further 4 h. The cells were then washed three times with drug-free α-MEM (containing 5% FCS and pen/strep). The plates were then incubated for 5 days under normoxic conditions. The cells were stained with sulphorhodamine B to measure total cells. The IC50 was determined by interpolation as the compound concentration reducing staining to 50% of controls on the same plate.

CHO-K1 = test: Cytotoxicity (MTT) under normoxia, CHO-K1; format: cell-based, Chinese hamster; conditions: Cricetulus griseus, CHO-K1, read-out: IC50 CHO-K1
Method: as §3, §4

MCF7 = test: Cytotoxicity (MTT) under normoxia, MCF7; format: cell-based; conditions: Homo sapiens, MCF7, read-out: IC50 MCF7
Method: as §3, §4

HCT116 [6] = test: Cytotoxicity (MTT) under normoxia, HCT116; format: cell-based; conditions: Homo sapiens, HCT-116, read-out: IC50 HCT116
Method: as §3, §4

RKO = test: Cytotoxicity (MTT) under normoxia, RKO; format: cell-based; conditions: Homo sapiens, read-out: IC50 RKO
Method: as §3, §4

SW480 = test: Cytotoxicity (MTT) under normoxia, SW480; format: cell-based; conditions: Homo sapiens, SW480, read-out: IC50 SW480
Method: as §3, §4

MRC5 = test: Cytotoxicity (MTT) under normoxia, MRC5; format: cell-based; conditions: Homo sapiens, MRC5, read-out: IC50 MRC5
Method: as §3, §4

HCT116 [7] = test: Cytotoxicity under normoxia and hypoxia (anaerobic chamber, sulphorhodamine B), HCT116; format: cell-based, human; conditions: for IC50: Homo sapiens, HCT-116, 4 h exposure, 5 days growth
Method: (§5) We also checked if the designed prodrugs were able to liberate the active alkaloids in hypoxic tumors by testing them under hypoxic conditions using an anaerobic chamber. The three prodrugs 5a–c and their parent alkaloids as well as the reference compounds PR-104A, the parent alcohol form of the phosphate pre-prodrug PR-104, and evofosfamide were tested using the HCT116 and H460 cell lines under both normoxic and hypoxic conditions (Table 5). The prodrugs were much less cytotoxic than the parent drugs, in agreement with our observations using the other cell lines described above (Figure 6).
(§6) The extent to which a prodrug is deactivated relative to its parent drug under normoxic conditions is defined as the Deactivation Ratio (DR). The DR can be simply calculated as DR = IC50 (prodrug)/IC50 (parent drug).
(§7) The efficacy of prodrug activation under hypoxic conditions can be expressed by the Hypoxia Cytotoxicity Ratio (HCR), which can be calculated for a given prodrug as: HCR = normoxic IC50/hypoxic IC50.
as §4

H460 = test: Cytotoxicity under normoxia and hypoxia (anaerobic chamber, sulphorhodamine B), H460; format: cell-based, human; conditions: for IC50: Homo sapiens, NCI-H460, 4 h exposure, 5 days growth
Method: as §5, §6, §7, §4

For `COc1cc2c3c(c4cc(OC)c(OC)cc4c2cc1OC)C[N+]1(Cc2c([N+](=O)[O-])ncn2C)CCC[C@H]1C3.[Br-]` (stereo partly drawn) [Compound 5b, (13aS)-2,3,6,7-tetramethoxy-10-((1-methyl-4-nitro-1H-imidazol-5-yl)methyl)-10,11,12,13,13a,14-hexahydro-9H-dibenzo[f,h]pyrrolo[1,2-b]isoquinolin-10-ium bromide], the solubility [1] was 162 ± 3 µM, the logD (LogD determination) was 0.38 ± 0.04 and the “Permeability (Papp)” value [2] was under −7 Log [10^−6 cm/s]. For the same compound, the fraction unbound [3] was 0.411, the half-life at 1 μM [4] was 73 ± 1.7 h and the half-life at 1 μM [5] was 63.3 ± 0.1 h. The “Kel (elimination rate constant)” value (in vitro; 2 μM) was 0.002 ± 0 min⁻¹, the “metabolized into the parent drug” value (in vitro; microsomes, 2 μM) was “less than 1%” and the half-life at 2 μM (in vitro; microsomes) was 6.733 ± 0.0533 h. The IC50 (HEK293) was 0.95 ± 0.174 µM, the IC50 (CHO-K1) was 3.49 ± 0.843 µM and the IC50 (MCF7) was 1.5 ± 0.128 µM. The IC50 (HCT116 [6]) was 3.3 ± 1.56 µM, the IC50 (RKO) was 4.06 ± 0.181 µM and the IC50 (SW480) was 7.25 ± 0.49 µM. The IC50 (MRC5) was 3.31 ± 0.163 µM, the “HCR (Hypoxia Cytotoxicity Ratio)” value (HCT116 [7]) was 11.3 and the “DR (Deactivation Ratio)” value (HCT116 [7]; HCT116, normoxia, DR = IC50 (prodrug)/IC50 (parent drug)) was 689. For the same compound, the IC50 (HCT116 [7]; HCT116, hypoxia, read-out: IC50 (Hypoxia)) was 1.46 ± 0.411 µM, the IC50 (HCT116 [7]; HCT116, normoxia, read-out: IC50 (Normoxia)) was 4.49 ± 0.698 µM and the “HCR (Hypoxia Cytotoxicity Ratio)” value (H460) was 24. The “DR (Deactivation Ratio)” value (H460; H460, normoxia, DR = IC50 (prodrug)/IC50 (parent drug)) was 719, the IC50 (H460; H460, hypoxia, read-out: IC50 (Hypoxia)) was 3.22 ± 1.07 µM and the IC50 (H460; H460, normoxia, read-out: IC50 (Normoxia)) was 77.6 µM. For the same compound, the melting point was 165 to 167 °C.
